{"source": "PubChem BioAssay (NCI)", "experiment_in_all_cases": "NCI tumour cell line growth inhibition, 48 h", "key": {"U251 CNS": {"test_system": "U251 CNS"}, "UO-31 renal": {"test_system": "UO-31 renal"}, "OVCAR-5 ovarian": {"test_system": "OVCAR-5 ovarian"}, "M19-MEL melanoma": {"test_system": "M19-MEL melanoma"}, "SK-OV-3 ovarian": {"test_system": "SK-OV-3 ovarian"}, "DMS 273 small cell lung": {"test_system": "DMS 273 small cell lung"}, "MALME-3M melanoma": {"test_system": "MALME-3M melanoma"}, "RPMI-8226 leukemia": {"test_system": "RPMI-8226 leukemia"}, "HOP-18 NSCLC": {"test_system": "HOP-18 NSCLC"}, "HOP-92 NSCLC": {"test_system": "HOP-92 NSCLC"}, "COLO 205 colon": {"test_system": "COLO 205 colon"}, "HT29 colon": {"test_system": "HT29 colon"}, "P388 leukemia": {"test_system": "P388 leukemia"}, "RXF 393 renal": {"test_system": "RXF 393 renal"}, "XF 498 CNS": {"test_system": "XF 498 CNS"}, "SF-539 CNS": {"test_system": "SF-539 CNS"}, "DLD-1 colon": {"test_system": "DLD-1 colon"}, "HOP-62 NSCLC": {"test_system": "HOP-62 NSCLC"}, "IGROV1 ovarian": {"test_system": "IGROV1 ovarian"}, "SK-MEL-2 melanoma": {"test_system": "SK-MEL-2 melanoma"}, "A498 renal": {"test_system": "A498 renal"}, "SF-295 CNS": {"test_system": "SF-295 CNS"}, "OVCAR-8 ovarian": {"test_system": "OVCAR-8 ovarian"}, "A549 NSCLC": {"test_system": "A549 NSCLC"}, "NCI-H226 lung": {"test_system": "NCI-H226 lung"}, "UACC-257 melanoma": {"test_system": "UACC-257 melanoma"}, "LOX IMVI melanoma": {"test_system": "LOX IMVI melanoma"}, "SN12C renal": {"test_system": "SN12C renal"}, "KM20L2 colon": {"test_system": "KM20L2 colon"}, "K-562 leukemia": {"test_system": "K-562 leukemia"}, "KM12 colon": {"test_system": "KM12 colon"}, "HCT-116 colon": {"test_system": "HCT-116 colon"}, "NCI-H23 lung": {"test_system": "NCI-H23 lung"}, "HL-60(TB) leukemia": {"test_system": "HL-60(TB) leukemia"}, "SW-620 colon": {"test_system": "SW-620 colon"}, "UACC-62 melanoma": {"test_system": "UACC-62 melanoma"}, "P388/ADR leukemia": {"test_system": "P388/ADR leukemia"}, "CAKI-1 renal": {"test_system": "CAKI-1 renal"}, "NCI-H460 lung": {"test_system": "NCI-H460 lung"}, "CCRF-CEM leukemia": {"test_system": "CCRF-CEM leukemia"}, "HCC-2998 colon": {"test_system": "HCC-2998 colon"}, "HCT-15 colon": {"test_system": "HCT-15 colon"}, "SF-268 CNS": {"test_system": "SF-268 CNS"}, "SNB-19 CNS": {"test_system": "SNB-19 CNS"}, "MCF7 breast": {"test_system": "MCF7 breast"}, "EKVX NSCLC": {"test_system": "EKVX NSCLC"}, "SN12K1 renal": {"test_system": "SN12K1 renal"}, "SK-MEL-5 melanoma": {"test_system": "SK-MEL-5 melanoma"}, "SNB-78 CNS": {"test_system": "SNB-78 CNS"}, "NCI-H522 lung": {"test_system": "NCI-H522 lung"}, "SK-MEL-28 melanoma": {"test_system": "SK-MEL-28 melanoma"}, "NCI/ADR-RES ovarian": {"test_system": "NCI/ADR-RES ovarian"}, "SNB-75 CNS": {"test_system": "SNB-75 CNS"}, "MOLT-4 leukemia": {"test_system": "MOLT-4 leukemia"}, "DMS 114 small cell lung": {"test_system": "DMS 114 small cell lung"}, "OVCAR-3 ovarian": {"test_system": "OVCAR-3 ovarian"}, "OVCAR-4 ovarian": {"test_system": "OVCAR-4 ovarian"}}, "note": "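Five concentrations, 48 hours, 96-well plates. TGI denotes the concentration required for complete inhibition of growth.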", "data": [{"smiles": "CN1C(=O)c2ccccc2NC(=O)c2cnn(C)c21", "values": [{"measurement": "TGI", "setting": "U251 CNS", "value": "> 100", "unit": "µM"}, {"measurement": "TGI", "setting": "UO-31 renal", "value": "> 100", "unit": "µM"}, {"measurement": "TGI", "setting": "OVCAR-5 ovarian", "value": "> 100", "unit": "µM"}, {"measurement": "TGI", "setting": "M19-MEL melanoma", "value": "> 100", "unit": "µM"}, {"measurement": "TGI", "setting": "SK-OV-3 ovarian", "value": "> 100", "unit": "µM"}, {"measurement": "TGI", "setting": "DMS 273 small cell lung", "value": "> 100", "unit": "µM"}, {"measurement": "TGI", "setting": "MALME-3M melanoma", "value": "> 100", "unit": "µM"}, {"measurement": "TGI", "setting": "RPMI-8226 leukemia", "value": "> 100", "unit": "µM"}, {"measurement": "TGI", "setting": "HOP-18 NSCLC", "value": "> 100", "unit": "µM"}, {"measurement": "TGI", "setting": "HOP-92 NSCLC", "value": "> 100", "unit": "µM"}, {"measurement": "TGI", "setting": "COLO 205 colon", "value": "> 100", "unit": "µM"}, {"measurement": "TGI", "setting": "HT29 colon", "value": "> 100", "unit": "µM"}, {"measurement": "TGI", "setting": "P388 leukemia", "value": "> 100", "unit": "µM"}, {"measurement": "TGI", "setting": "RXF 393 renal", "value": "> 100", "unit": "µM"}, {"measurement": "TGI", "setting": "XF 498 CNS", "value": "> 100", "unit": "µM"}, {"measurement": "TGI", "setting": "SF-539 CNS", "value": "> 100", "unit": "µM"}, {"measurement": "TGI", "setting": "DLD-1 colon", "value": "> 100", "unit": "µM"}, {"measurement": "TGI", "setting": "HOP-62 NSCLC", "value": "> 100", "unit": "µM"}, {"measurement": "TGI", "setting": "IGROV1 ovarian", "value": "> 100", "unit": "µM"}, {"measurement": "TGI", "setting": "SK-MEL-2 melanoma", "value": "> 100", "unit": "µM"}, {"measurement": "TGI", "setting": "A498 renal", "value": "> 100", "unit": "µM"}, {"measurement": "TGI", "setting": "SF-295 CNS", "value": "> 100", "unit": "µM"}, {"measurement": "TGI", "setting": "OVCAR-8 ovarian", "value": "> 100", "unit": "µM"}, {"measurement": "TGI", "setting": "A549 NSCLC", "value": "> 100", "unit": "µM"}, {"measurement": "TGI", "setting": "NCI-H226 lung", "value": "> 100", "unit": "µM"}, {"measurement": "TGI", "setting": "UACC-257 melanoma", "value": "> 100", "unit": "µM"}, {"measurement": "TGI", "setting": "LOX IMVI melanoma", "value": "> 100", "unit": "µM"}, {"measurement": "TGI", "setting": "SN12C renal", "value": "> 100", "unit": "µM"}, {"measurement": "TGI", "setting": "KM20L2 colon", "value": "> 100", "unit": "µM"}, {"measurement": "TGI", "setting": "K-562 leukemia", "value": "> 100", "unit": "µM"}, {"measurement": "TGI", "setting": "KM12 colon", "value": "> 100", "unit": "µM"}, {"measurement": "TGI", "setting": "HCT-116 colon", "value": "> 57.4", "unit": "µM"}, {"measurement": "TGI", "setting": "NCI-H23 lung", "value": "> 100", "unit": "µM"}, {"measurement": "TGI", "setting": "HL-60(TB) leukemia", "value": "> 100", "unit": "µM"}, {"measurement": "TGI", "setting": "SW-620 colon", "value": "> 100", "unit": "µM"}, {"measurement": "TGI", "setting": "UACC-62 melanoma", "value": "> 100", "unit": "µM"}, {"measurement": "TGI", "setting": "P388/ADR leukemia", "value": "> 100", "unit": "µM"}, {"measurement": "TGI", "setting": "CAKI-1 renal", "value": "> 100", "unit": "µM"}, {"measurement": "TGI", "setting": "NCI-H460 lung", "value": "> 100", "unit": "µM"}, {"measurement": "TGI", "setting": "CCRF-CEM leukemia", "value": "> 100", "unit": "µM"}, {"measurement": "TGI", "setting": "HCC-2998 colon", "value": "> 100", "unit": "µM"}, {"measurement": "TGI", "setting": "HCT-15 colon", "value": "> 100", "unit": "µM"}, {"measurement": "TGI", "setting": "SF-268 CNS", "value": "> 100", "unit": "µM"}, {"measurement": "TGI", "setting": "SNB-19 CNS", "value": "> 100", "unit": "µM"}, {"measurement": "TGI", "setting": "MCF7 breast", "value": "> 100", "unit": "µM"}, {"measurement": "TGI", "setting": "EKVX NSCLC", "value": "> 100", "unit": "µM"}, {"measurement": "TGI", "setting": "SN12K1 renal", "value": "> 100", "unit": "µM"}, {"measurement": "TGI", "setting": "SK-MEL-5 melanoma", "value": "> 100", "unit": "µM"}, {"measurement": "TGI", "setting": "SNB-78 CNS", "value": "> 100", "unit": "µM"}, {"measurement": "TGI", "setting": "NCI-H522 lung", "value": "> 100", "unit": "µM"}, {"measurement": "TGI", "setting": "SK-MEL-28 melanoma", "value": "> 100", "unit": "µM"}, {"measurement": "TGI", "setting": "NCI/ADR-RES ovarian", "value": "> 100", "unit": "µM"}, {"measurement": "TGI", "setting": "SNB-75 CNS", "value": "> 100", "unit": "µM"}, {"measurement": "TGI", "setting": "MOLT-4 leukemia", "value": "> 100", "unit": "µM"}, {"measurement": "TGI", "setting": "DMS 114 small cell lung", "value": "> 100", "unit": "µM"}, {"measurement": "TGI", "setting": "OVCAR-3 ovarian", "value": "> 100", "unit": "µM"}, {"measurement": "TGI", "setting": "OVCAR-4 ovarian", "value": "> 100", "unit": "µM"}]}]}
